We go through 27 molecules from patent US20050107400A1, “Use of pyrazolopyridines as therapeutic compounds” (priority 2001, published 2005).

SMILES strings stand for the structures.

The test system of this assay is HSV-1. Description: HSV-1 replication in infected Vero 76 cells, DNA hybridization capture assay. It is filed as cell-based, herpes simplex virus 1. Conditions: Human alphaherpesvirus 1; HSV-1 in Vero 76 cells, MOI=0.001, 40-48 hours at 37° C.; read-out: IC50. Here is the method:
a) Tissue Culture and HSV Infection.
Vero 76 cells were maintained in MEM with Earle's salts, L-glutamine, 8% FBS (Hyclone, A-1111-L) and 100 units/mL Penicillin-100 μg/mL Streptomycin. For assay conditions, FBS was reduced to 2%. Cells are seeded into 96-well tissue culture plates at a density of 5×10^4 cells/well after being incubated for 45 min at 37° C. in the presence of HSV-1 or HSV-2 (MOI=0.001). Test compounds are added to the wells and the plates are incubated at 37° C. for 40-48 hours. Cell lysates are prepared as follows: media was removed and replaced with 150 μL/well 0.2 N NaOH with 1% Igepal CA 630 or NP-40. Plates were incubated up to 14 days at room temperature in a humidified chamber to prevent evaporation.
(b) Preparation of Detection DNA.
For the detection probe, a gel-purified, digoxigenin-labeled, […] PCR fragment of the HSV UL-15 sequence was utilized. PCR conditions included 0.5 μM primers, 180 μM dTTP, 20 μM dUTP-digoxigenin (Boehringer Mannheim 1558706), 200 μM each of dATP, dCTP, and dGTP, 1×PCR Buffer II (Perkin Elmer), 2.5 mM MgCl2, 0.025 units/μL of AmpliTaq Gold polymerase (Perkin Elmer), and 5 ng of gel-purified HSV DNA per 100 μL Extension conditions were 10 min at 95° C., followed by 30 cycles of 95° C. for 1 min, 55° C. for 30 sec, and 72° C. for 2 min. The amplification was completed with a 10-min incubation at 72° C. Primers were selected to amplify a 728 bp probe spanning a section of the HSV1 UL15 open reading frame (nucleotides 249-977). Single-stranded transcripts were purified with Promega M13 Wizard kits. The final product was mixed 1:1 with a mixture of 6 M GuSCN, 100 mM EDTA and 200 μg/mL herring sperm DNA and stored at 4° C.
(c) Preparation of Capture Plates.
The capture DNA plasmid (HSV UL13 region in pUC) was linearized by cutting with Xba I, denatured for 15 min at 95° C. and diluted immediately into Reacti-Bind DNA Coating Solution (Pierce, 17250, diluted 1:1 with TE buffer, pH 8) at 1 ng/μL. 75 μL/well were added to Corning (#3922 or 9690) white 96-well plates and incubated at room temperature for at least 4 hrs before washing twice with 300 μL/well 0.2×SSC/0.05% Tween-20 (SSC/T buffer). The plates were then incubated overnight at room temperature with 150 μL/well 0.2 N NaOH, 1% IGEPAL and 10 μg/mL herring sperm DNA.
Twenty-seven (27) μL of cell lysate was combined with 45 μL of hybridization solution (final concentration: 3M GuSCN, 50 mM EDTA, 100 μg/ml salmon sperm DNA, 5×Denhardt's solution, 0.25×APE, and 5 ng of the digoxigenin-labeled detection probe). APE is 1.5 M NH4-acetate, 0.15 M NH4H2 phosphate, and 5 mM EDTA adjusted to pH 6.0. Mineral oil (50 μL) was added to prevent evaporation. The hybridization plates were incubated at 95° C. for 10 minutes to denature the DNA, then incubated at 42° C. overnight. The wells were washed 6× with 300 μL/well SSC/T buffer then incubated with 75 μL/well anti-digoxigenin-HRP-conjugated antibody (Boehringer Mannheim 1207733, 1:5000 in TE) for 30 min at room temperature. The wells were washed 6× with 300 μL/well with PBS/0.05% Tween-20 before 75 μL/well SuperSignal LBA substrate (Pierce) was added. The plates were incubated at room temperature for 30 minutes and chemiluminescence was measured in a Wallac Victor reader.
The following results were obtained for HSV-1.
Take `O=C1CCCN1CCCNc1cc(-c2c(-c3ccc(F)cc3)nn3ccccc23)ccn1` [Example 39, 1-[3-({4-[2-(4-fluorophenyl)-pyrazolo[1,5-a]pyridin-3-yl]-2-pyridinyl}amino)propyl]-2-pyrrolidinone]: the half-inhibitory concentration (IC50) – broadly, the concentration that inhibits the measured activity by half – is 1700 nM.
As for `CCCCNc1nccc(-c2c(-c3ccc(F)cc3)nn3c(CCCC)cccc23)n1` [Example 84, N-Butyl-4-[7-butyl-2-(4-fluorophenyl)pyrazolo[1,5-a]pyridin-3-yl]-2-pyrimidinamine], the IC50 stood at 600 nM.
`Fc1ccc(-c2nn3ccccc3c2-c2ccnc(NCCc3cnc[nH]3)n2)cc1` [Example 26, 4-[2-(4-Fluorophenyl)pyrazolo[1,5-a]pyridin-3-yl]-N-[2-(1H-imidazol-5-yl)ethyl]-2-pyrimidinamine]: the IC50 was 150 nM.
For the molecule `Fc1ccc(-c2nn3c(OCC(F)(F)F)cccc3c2-c2ccnc(Oc3ccccc3)n2)cc1` [Example 67, 2-(4-Fluorophenyl)-3-(4-(2-phenyloxy)pyrimidinyl)-7-(2,2,2-trifluoroethoxy)pyrazolo[1,5-a]pyridine], the half-inhibitory concentration (IC50) is 15000 nM.
As for `C=CCNc1cc(-c2c(-c3ccc(F)cc3)nn3ccccc23)ccn1` [Example 42, N-Allyl-4-[2-(4-fluorophenyl)pyrazolo-[1,5-a]pyridin-3-yl]-2-pyridinamine], the half-inhibitory concentration (IC50) came to 5000 nM.
Regarding `CCCCNc1nccc(-c2c(-c3ccc(F)cc3)nn3cc(C(F)(F)F)ccc23)n1` [Example 31, N-Butyl-4-[2-(4-fluorophenyl)-6-trifluoromethylpyrazolo-[1,5-a]pyridin-3-yl]-2-pyrimidinamine], the IC50 was found to be 1700 nM.
For the molecule `Fc1ccc(-c2nn3ccccc3c2-c2ccnc(NCc3cccnc3)n2)cc1` [Example 27, 4-[2-(4-Fluorophenyl)pyrazolo[1,5-a]pyridin-3-yl]-N-(3-pyridinylmethyl)-2-pyrimidinamine], the IC50 amounted to 500 nM.
As for `Nc1nccc(-c2c(-c3ccc(F)cc3)nn3ccccc23)n1` [Example 18, 4-[2-(4-Fluorophenyl)pyrazolo[1,5-a]pyridin-3-yl]-2-pyrimidinamine], the figure is 5400 nM; as for `CCOC(OCC)(OCC)c1ccc2c(-c3ccnc(NC4CC4)n3)c(-c3ccc(OC)cc3)nn2c1` [Example 96, N-Cyclopropyl-4-[2-(4-methoxyphenyl)-6-(triethoxymethyl)pyrazolo[1,5-a]pyridin-3-yl]pyrimidin-2-amine], 5500 nM; as for `Fc1ccc(-c2nn3ccccc3c2-c2ccnc(NCCc3cnc[nH]3)c2)cc1` [Example 1, 4-[2-(4-Fluorophenyl)pyrazolo[1,5-a]pyridin-3-yl]-N-[2-(1H-imidazol-5-yl)ethyl]-2-pyridinamine], 700 nM.
With `Fc1ccc(-c2nn3c(OCC(F)(F)F)cccc3c2-c2ccnc(NC3CCCCC3)n2)cc1` [Example 64, N-Cyclohexyl-4-[2-(4-fluorophenyl)-7-(2,2,2-trifluoroethoxy)pyrazolo[1,5-a]pyridin-3-yl]-2-pyrimidinamine], the IC50 was 900 nM.
Take `Fc1ccc(-c2nn3ccccc3c2-c2cc(F)nc(NCc3ccccc3)c2)cc1` [Example 12, N-Benzyl-6-fluoro-4-[2-(4-fluorophenyl)pyrazolo[1,5-a]pyridin-3-yl]-2-pyridinamine]: the 50% inhibitory concentration (IC50) came out at 3900 nM.
Take `CCCCNc1nccc(-c2c(-c3ccc(F)cc3)nn3c(OCCF)cccc23)n1` [Example 57, N-Butyl-4-[7-(2-fluoroethoxy)-2-(4-fluorophenyl)pyrazolo[1,5-a]pyridin-3-yl]-2-pyrimidinamine]: the IC50 stood at 2500 nM.
As for `OCCCNc1cc(-c2c(-c3ccc(F)cc3)nn3cc(C(F)(F)F)ccc23)ccn1` [Example 14, 3-(4-[2-(4-Fluorophenyl)-6-trifluoromethylpyrazolo[1,5-a]-pyridin-3-yl]-2-pyridinylamino)-1-propanol], the 50% inhibitory concentration (IC50) was 2000 nM.
The value for `OCCCNc1nccc(-c2c(-c3ccc(F)cc3)nn3cc(C(F)(F)F)ccc23)n1` [Example 23, 3-(4-[2-(4-Fluorophenyl)-6-trifluoromethylpyrazolo[1,5-a]pyridin-3-yl]-2-pyrimidinylamino)-1-propanol] was 1000 nM; that for `CCCNc1cc(-c2c(-c3ccc(F)cc3)nn3ccccc23)ccn1` [Example 8, 4-[2-(4-Fluorophenyl)pyrazolo[1,5-a]pyridin-3-yl]-N-propyl-2-pyridinamine] was 2800 nM; that for `Fc1ccc(-c2nn3ccc(Cl)cc3c2-c2ccnc(NC3CCCC3)n2)cc1` [Example 36, 4-[5-Chloro-2-(4-fluorophenyl)pyrazolo[1,5-a]pyridin-3-yl]-N-cyclopentyl-2-pyrimidinamine] was 5000 nM.
As for `CCCCCCCCc1cccc2c(-c3ccnc(NCCCC)n3)c(-c3ccc(F)cc3)nn12` [Example 86, N-Butyl-4-[2-(4-fluorophenyl)-7-octylpyrazolo[1,5-a]pyridin-3-yl]-2-pyrimidinamine], the IC50 turned out to be 6000 nM.
For the molecule `CNc1cc(-c2c(-c3ccc(F)cc3)nn3ccccc23)cc(F)n1` [Example 40, 6-Fluoro-4-[2-(4-fluorophenyl)-pyrazolo[1,5-a]pyridin-3-yl]-N-methyl-2-pyridinamine], the IC50 is 5300 nM.
On to `CSc1nccc(-c2c(-c3ccc(F)cc3)nn3c(OCC(F)(F)F)cccc23)n1` [Example 59, 2-(4-Fluorophenyl)-3-(4-(2-methylthio)pyrimidinyl)-7-(2,2,2-trifluoroethoxy)pyrazolo[1,5-a]pyridine], for which the 50% inhibitory concentration (IC50) is 10000 nM.
As for `Fc1ccc(-c2nn3cc(Cl)ccc3c2-c2ccc(NC3CC3)nc2)cc1` [Example 43, 5-[6-Chloro-2-(4-fluorophenyl)-pyrazolo[1,5-a]pyridin-3-yl]-N-cyclopropyl-2-pyridinamine], the figure is 2400 nM; as for `CCc1cccc2c(-c3ccnc(NC4CC4)n3)c(-c3ccc(F)cc3)nn12` [Example 87, N-Cyclopropyl-4-[7-ethyl-2-(4-fluorophenyl)pyrazolo[1,5-a]pyridin-3-yl]-2-pyrimidinamine], 3000 nM; as for `Fc1ccc(-c2nn3c(OCC(F)(F)F)cccc3c2-c2ccnc(NC3CC3)n2)cc1` [Example 62, N-Cyclopropyl-4-[2-(4-fluorophenyl)-7-(2,2,2-trifluoroethoxy)pyrazolo [1,5-a]pyridin-3-yl]-2-pyrimidinamine], 2000 nM.
With `CN(C)CCCNc1nccc(-c2c(-c3ccc(F)cc3)nn3cc(C(F)(F)F)ccc23)n1` [Example 90, N^1-{4-[2-(4-Fluorophenyl)-6-trifluoromethylpyrazolo[1,5-a]pyridin-3-yl]pyrimidin-2-yl}-N^3,N^3-dimethylpropane-1,3-diamine], the half-inhibitory concentration (IC50) worked out at 1900 nM.
Take `CN(C)c1cc(-c2c(-c3ccc(F)cc3)nn3cccc(F)c23)ccn1` [Example 41, 4-[4-Fluoro-2-(4-fluorophenyl)-pyrazolo[1,5-a]pyridin-3-yl]-N,N-dimethyl-2-pyridinamine]: the IC50 came out at 21600 nM.
Turning to `Fc1ccc(-c2nn3ccc(N4CCOCC4)cc3c2-c2ccnc(NC3CCCC3)n2)cc1` [Example 89, N-Cyclopentyl-4-[2-(4-fluorophenyl)-5-morpholin-4-ylpyrazolo[1,5-a]pyridin-3-yl]pyrimidin-2-amine], the IC50 amounted to 3600 nM.
Regarding `CCCCCNc1cc(-c2c(-c3ccc(F)cc3)nn3ccccc23)ccn1` [Example 30, 4-[2-(4-Fluorophenyl)pyrazolo[1,5-a]pyridin-3-yl]-N-pentyl-2-pyridinamine], the half-inhibitory concentration (IC50) is 4000 nM.
